The values below come from ChEMBL document CHEMBL5726787, “Compounds, compositions and methods” (2018).

Molecules are shown by their SMILES.

For the test, the target named is T1, Receptor-interacting serine/threonine-protein kinase 1 (Homo sapiens, UniProt Q13546).
T1 sequence (Q13546 whole entry): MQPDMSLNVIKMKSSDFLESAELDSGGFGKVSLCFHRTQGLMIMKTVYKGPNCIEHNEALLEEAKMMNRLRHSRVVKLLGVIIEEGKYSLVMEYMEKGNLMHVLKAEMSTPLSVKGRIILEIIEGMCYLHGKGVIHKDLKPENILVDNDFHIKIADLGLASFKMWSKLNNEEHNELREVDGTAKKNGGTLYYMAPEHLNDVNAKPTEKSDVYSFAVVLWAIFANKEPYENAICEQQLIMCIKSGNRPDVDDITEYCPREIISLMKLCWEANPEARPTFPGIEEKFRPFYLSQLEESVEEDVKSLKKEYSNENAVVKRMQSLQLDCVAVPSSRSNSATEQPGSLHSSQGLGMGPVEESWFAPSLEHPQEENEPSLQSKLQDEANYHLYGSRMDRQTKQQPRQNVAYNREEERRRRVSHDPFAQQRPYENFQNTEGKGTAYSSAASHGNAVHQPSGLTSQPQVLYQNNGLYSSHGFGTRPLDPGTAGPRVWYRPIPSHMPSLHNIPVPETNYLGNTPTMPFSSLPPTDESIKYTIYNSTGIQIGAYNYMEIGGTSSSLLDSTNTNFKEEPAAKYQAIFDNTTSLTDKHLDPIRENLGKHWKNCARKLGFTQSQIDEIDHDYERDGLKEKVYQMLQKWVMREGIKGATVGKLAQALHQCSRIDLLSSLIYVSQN
The experiment in a line: […]: Test compounds were diluted in DMSO and 0.1 μL of solution was dispensed to each well of a 384-well white solid microplate. The assay buffer was 50 mM HEPES pH 7.5, 50 mM NaCl, 30 mM MgCl2. The buffer was supplemented with 0.02% CHAPS, 0.01% of Pluronic F127, 0.1 mg/mL BSA and 1 mM DTT. MnCl2, 5 mM, was included in the assay buffer on the day of the experiment. […] 5 μL of enzyme and 5 μL of ATP were added to the plate at twice the final assay concentration and incubated at room temperature for 3 hours. Following this reaction, 10 μL of ADP-Glo reagent (Promega) was added to each well and incubated for 40 min at room temperature. This stops the kinase reaction and depletes any remaining ATP. 20 μL of ADP-Glo detection reagent was then added to each well and incubated at room temperature for at least 15 minutes. The detection reagent converts ADP to ATP and introduces luciferase and luciferin to detect ATP. The luminescence is then measured with the Envision (PerkinElmer) plate reader. Test compound inhibition was expressed as percent inhibition of internal assay controls. For concentration response curves, normalized data is fit and IC50 determined using XL-fit (IDBS) for Excel. The IC50 were averaged to determine a mean value, for a minimum of two independent experiments. On the technique in general: In ADP-Glo the light output rises with the ADP produced.

One may read the IC50 as the concentration at which inhibition is half-maximal. With `CN1C(=O)C(NC(=O)c2nnc(Cc3ccccc3)[nH]2)C[C@@H](F)c2ccccc21` (some centres not stated), the IC50 was 0.1 to 1000 nM. Then `CN1C(=O)C(NC(=O)c2nnc(Cc3ccccc3)[nH]2)C[C@H](F)c2ccccc21` (some centres not stated), with 0.1 to 1000 nM.
